Measurements from paper PMC5218480 (PLoS ONE, 2017).

Tested on: MV-4-11 cells
Experiment: Gene expression microarray analysis (Affymetrix PrimeView) and GSEA
Type: cell-based, human
Parameters: RFU PODN (11730768_x_at) / Fold change /veh PODN (11730768_x_at) / RFU LINC00158 (11744669_a_at) / Fold change /veh LINC00158 (11744669_a_at) / RFU DUSP10 (11751237_a_at) / Fold change /veh DUSP10 (11751237_a_at) / RFU ID3 (11757404_x_at) / Fold change /veh ID3 (11757404_x_at) / RFU PLEKHG5 (11737974_s_at) / Fold change /veh PLEKHG5 (11737974_s_at) / RFU LRRC4B (11730491_at) / Fold change /veh LRRC4B (11730491_at) / RFU GIMAP4 (11747438_a_at) / Fold change /veh GIMAP4 (11747438_a_at) / RFU KRT8 (11758183_x_at) / Fold change /veh KRT8 (11758183_x_at) / RFU CNN1 (11734310_a_at) / Fold change /veh CNN1 (11734310_a_at) / RFU VPS37D (11726825_at) / Fold change /veh VPS37D (11726825_at) / RFU C10orf10 (11716522_x_at) / Fold change /veh C10orf10 (11716522_x_at) / RFU KIR2DL2 /// KIR2DL4 /// KIR2DL5A /// KIR2DL5B /// KIR2DS1 /// KIR2DS2 /// KIR2DS3 /// KIR2DS4 /// KIR3DL3 /// KIR3DL3 /// KIR3DS1 (11738374_at) / Fold change /veh KIR2DL2 /// KIR2DL4 /// KIR2DL5A /// KIR2DL5B /// KIR2DS1 /// KIR2DS2 /// KIR2DS3 /// KIR2DS4 /// KIR3DL3 /// KIR3DL3 /// KIR3DS1 (11738374_at) / RFU C1QL1 (11718748_at) / Fold change /veh C1QL1 (11718748_at) / RFU TMPRSS4 (11747572_a_at) / Fold change /veh TMPRSS4 (11747572_a_at) / RFU HAMP (11756126_x_at) / Fold change /veh HAMP (11756126_x_at) / RFU RNFT2 (11725882_a_at) / Fold change /veh RNFT2 (11725882_a_at) / RFU NR4A2 (11747474_a_at) / Fold change /veh NR4A2 (11747474_a_at) / RFU ABCC12 (11746883_a_at) / Fold change /veh ABCC12 (11746883_a_at) / RFU TMEM136 (11760407_x_at) / Fold change /veh TMEM136 (11760407_x_at) / RFU CLDN22 /// WWC2 (11732394_at) / Fold change /veh CLDN22 /// WWC2 (11732394_at) / RFU HLA-DPB1 (11760878_x_at) / Fold change /veh HLA-DPB1 (11760878_x_at) / RFU SPINT1 (11716480_a_at) / Fold change /veh SPINT1 (11716480_a_at) / RFU GAP43 (11754022_s_at) / Fold change /veh GAP43 (11754022_s_at) / RFU A4GNT (11735810_at) / Fold change /veh A4GNT (11735810_at) / RFU PRB3 (11715151_x_at) / Fold change /veh PRB3 (11715151_x_at) / RFU TUBB4B (11761932_at) / Fold change /veh TUBB4B (11761932_at) / RFU CAPN14 (11732068_a_at) / Fold change /veh CAPN14 (11732068_a_at) / RFU TMCC2 (11721928_a_at) / Fold change /veh TMCC2 (11721928_a_at) / RFU IRGQ (11745062_a_at) / Fold change /veh IRGQ (11745062_a_at) / RFU FAM174B (11720279_a_at) / Fold change /veh FAM174B (11720279_a_at) / RFU TMPRSS4 (11748680_a_at) / Fold change /veh TMPRSS4 (11748680_a_at) / RFU FAM212B (11763350_a_at) / Fold change /veh FAM212B (11763350_a_at) / RFU PLEKHG5 (11743358_a_at) / Fold change /veh PLEKHG5 (11743358_a_at) / RFU ZSCAN30 (11745921_a_at) / Fold change /veh ZSCAN30 (11745921_a_at) / RFU CMKLR1 (11741424_a_at) / Fold change /veh CMKLR1 (11741424_a_at) / RFU LOC101060620 /// MAPK8IP1 (11723275_at) / Fold change /veh LOC101060620 /// MAPK8IP1 (11723275_at) / RFU SPTSSB (11747773_x_at) / Fold change /veh SPTSSB (11747773_x_at) / RFU PRSS12 (11739890_at) / Fold change /veh PRSS12 (11739890_at) / RFU BIN1 (11741810_x_at) / Fold change /veh BIN1 (11741810_x_at) / RFU WNT11 (11732464_a_at) / Fold change /veh WNT11 (11732464_a_at) / RFU C10orf10 (11716521_a_at) / Fold change /veh C10orf10 (11716521_a_at) / RFU C5orf56 (11738089_at) / Fold change /veh C5orf56 (11738089_at) / RFU CYB561 (11721691_x_at) / Fold change /veh CYB561 (11721691_x_at) / RFU ANKRD19P (11752326_a_at) / Fold change /veh ANKRD19P (11752326_a_at) / RFU OR2T12 /// OR2T33 /// OR2T8 (11738714_s_at) / Fold change /veh OR2T12 /// OR2T33 /// OR2T8 (11738714_s_at) / RFU VCAN (11748164_a_at) / Fold change /veh VCAN (11748164_a_at) / RFU JSRP1 (11732532_at) / Fold change /veh JSRP1 (11732532_at) / RFU KRTAP10-11 (11738290_x_at) / Fold change /veh KRTAP10-11 (11738290_x_at) / RFU MYO3A (11730013_a_at) / Fold change /veh MYO3A (11730013_a_at) / RFU EBF3 (11725865_a_at) / Fold change /veh EBF3 (11725865_a_at) / RFU CAMK2N1 (11719241_x_at) / Fold change /veh CAMK2N1 (11719241_x_at) / RFU C5orf56 (11738088_a_at) / Fold change /veh C5orf56 (11738088_a_at) / RFU OLFML3 (11715873_a_at) / Fold change /veh OLFML3 (11715873_a_at) / RFU LOC100653217 /// NTM (11731650_a_at) / Fold change /veh LOC100653217 /// NTM (11731650_a_at) / RFU MAPK11 (11762145_a_at) / Fold change /veh MAPK11 (11762145_a_at) / RFU FIZ1 (11724087_x_at) / Fold change /veh FIZ1 (11724087_x_at) / RFU OASL (11726364_x_at) / Fold change /veh OASL (11726364_x_at) / RFU SOX15 (11748057_x_at) / Fold change /veh SOX15 (11748057_x_at) / RFU CD79A (11719716_a_at) / Fold change /veh CD79A (11719716_a_at) / RFU HIST1H1D (11736915_at) / Fold change /veh HIST1H1D (11736915_at) / RFU CASKIN2 (11723855_a_at) / Fold change /veh CASKIN2 (11723855_a_at) / RFU LOC730098 (11760151_x_at) / Fold change /veh LOC730098 (11760151_x_at) / RFU OR4N2 (11742367_at) / Fold change /veh OR4N2 (11742367_at) / RFU PRRT2 (11749266_a_at) / Fold change /veh PRRT2 (11749266_a_at) / RFU SNX32 (11753110_a_at) / Fold change /veh SNX32 (11753110_a_at) / RFU CDHR5 (11726645_a_at) / Fold change /veh CDHR5 (11726645_a_at) / RFU RCAN1 (11760418_a_at) / Fold change /veh RCAN1 (11760418_a_at) / RFU FAM167A (11723789_a_at) / Fold change /veh FAM167A (11723789_a_at) / RFU FAM26E (11764081_at) / Fold change /veh FAM26E (11764081_at) / RFU ISYNA1 (11749810_s_at) / Fold change /veh ISYNA1 (11749810_s_at) / RFU ACY1 (11761880_at) / Fold change /veh ACY1 (11761880_at) / RFU 11764098_at / Fold change /veh 11764098_at / RFU SAMD14 (11745864_x_at) / Fold change /veh SAMD14 (11745864_x_at) / RFU NPB (11741838_a_at) / Fold change /veh NPB (11741838_a_at) / RFU TMPRSS6 (11731388_a_at) / Fold change /veh TMPRSS6 (11731388_a_at) / RFU KRTAP10-2 (11738614_at) / Fold change /veh KRTAP10-2 (11738614_at) / RFU ARHGAP8 /// PRR5-ARHGAP8 (11727945_x_at) / Fold change /veh ARHGAP8 /// PRR5-ARHGAP8 (11727945_x_at) / RFU KRTAP5-7 /// NADSYN1 (11734609_at) / Fold change /veh KRTAP5-7 /// NADSYN1 (11734609_at) / RFU RASL12 (11751679_a_at) / Fold change /veh RASL12 (11751679_a_at) / RFU CDKN2B (11736163_a_at) / Fold change /veh CDKN2B (11736163_a_at) / RFU PRF1 (11729649_at) / Fold change /veh PRF1 (11729649_at) / RFU, ZNF638 /// ZNF638-IT1 / Fold change vs veh, ZNF638 /// ZNF638-IT1 / RFU, PANK3 / Fold change vs veh, PANK3 / RFU, SH3YL1 / Fold change vs veh, SH3YL1 / RFU, ZEB2 / Fold change vs veh, ZEB2 / RFU, NRIP1 / Fold change vs veh, NRIP1 / RFU, PTTG1IP / Fold change vs veh, PTTG1IP / RFU, CAPN2 / Fold change vs veh, CAPN2 / RFU, MED14 / Fold change vs veh, MED14 / RFU, SNORA58 / Fold change vs veh, SNORA58 / RFU, C1orf63 / Fold change vs veh, C1orf63 / RFU, LRRFIP1 / Fold change vs veh, LRRFIP1 / RFU, NDUFAF7 / Fold change vs veh, NDUFAF7 / RFU, SLC12A2 / Fold change vs veh, SLC12A2 / RFU, IBTK / Fold change vs veh, IBTK / RFU, ESF1 / Fold change vs veh, ESF1 / Fold change vs veh, TMEM50B / RFU, TAOK1 / Fold change vs veh, TAOK1 / RFU, ACBD3 / Fold change vs veh, ACBD3 / RFU, TMA16 / Fold change vs veh, TMA16 / RFU, RWDD3 / Fold change vs veh, RWDD3 / RFU, BCAT1 / Fold change vs veh, BCAT1 / RFU, EDEM3 / Fold change vs veh, EDEM3 / RFU, TMEM33 / Fold change vs veh, TMEM33 / RFU, WDR75 / Fold change vs veh, WDR75 / RFU, AHCTF1 / Fold change vs veh, AHCTF1 / RFU, TFRC / Fold change vs veh, TFRC / RFU, ZDHHC17 / Fold change vs veh, ZDHHC17 / RFU, NOM1 / Fold change vs veh, NOM1 / RFU, ARL8B / Fold change vs veh, ARL8B / RFU, ZBTB11 / Fold change vs veh, ZBTB11 / RFU, TAMM41 / Fold change vs veh, TAMM41 / RFU, KIAA1704 /// LOC100996395 / Fold change vs veh, KIAA1704 /// LOC100996395 / RFU, ING1 / Fold change vs veh, ING1 / RFU, TRMT61B / Fold change vs veh, TRMT61B / RFU, FUBP3 / Fold change vs veh, FUBP3 / RFU, TP53 / Fold change vs veh, TP53 / RFU, TNKS2 / Fold change vs veh, TNKS2 / RFU, ZFP14 / Fold change vs veh, ZFP14 / RFU, ACTR2 / Fold change vs veh, ACTR2 / RFU, PPP3R1 / Fold change vs veh, PPP3R1 / RFU, PIK3R1 / Fold change vs veh, PIK3R1 / RFU, HNRNPA1 / Fold change vs veh, HNRNPA1 / RFU, RNF170 / Fold change vs veh, RNF170 / RFU, ZNF28 / Fold change vs veh, ZNF28 / RFU, RNGTT / Fold change vs veh, RNGTT / RFU, OGT / Fold change vs veh, OGT / RFU, BRD1 / Fold change vs veh, BRD1 / RFU, MARS / Fold change vs veh, MARS / RFU, ZNF655 / Fold change vs veh, ZNF655 / RFU, FAHD1 / Fold change vs veh, FAHD1 / RFU, BDP1 / Fold change vs veh, BDP1 / RFU, LRRCC1 / Fold change vs veh, LRRCC1 / RFU, ARID1A / Fold change vs veh, ARID1A / RFU, ZNF146 / Fold change vs veh, ZNF146 / RFU, ZNF330 / Fold change vs veh, ZNF330 / RFU, GPN3 / Fold change vs veh, GPN3 / RFU, C9orf123 / Fold change vs veh, C9orf123 / RFU, N4BP2L2 / Fold change vs veh, N4BP2L2 / RFU, ARFIP1 / Fold change vs veh, ARFIP1 / RFU, FAM179B / Fold change vs veh, FAM179B / RFU, BCL10 / Fold change vs veh, BCL10 / RFU, UHRF1BP1L / Fold change vs veh, UHRF1BP1L / RFU, BET1 / Fold change vs veh, BET1 / RFU, CNOT2 / Fold change vs veh, CNOT2 / RFU, ZNF268 / Fold change vs veh, ZNF268 / Fold change vs veh, ZNF507 / RFU, DGCR2 / Fold change vs veh, DGCR2 / RFU, WDSUB1 / Fold change vs veh, WDSUB1 / Fold change vs veh, HSP90B1 /// MIR3652 / RFU, ADSS / Fold change vs veh, ADSS / RFU, GK / Fold change vs veh, GK / RFU, ZNF148 / Fold change vs veh, ZNF148 / RFU, TAF9 / Fold change vs veh, TAF9 / RFU, SLC1A5 / Fold change vs veh, SLC1A5 / RFU, SLMO2 / Fold change vs veh, SLMO2 / RFU, ABCC4 / Fold change vs veh, ABCC4 / RFU, LOC101060439 /// RAP1B / Fold change vs veh, LOC101060439 /// RAP1B / RFU, RFX7 / Fold change vs veh, RFX7 / RFU, GTPBP10 / Fold change vs veh, GTPBP10 / RFU, CNEP1R1 / Fold change vs veh, CNEP1R1 / RFU, BIVM-ERCC5 /// ERCC5 / Fold change vs veh, BIVM-ERCC5 /// ERCC5 / RFU, ILF3 / Fold change vs veh, ILF3 / RFU 11762660_at / Fold change /veh 11762660_at / RFU VCAN (11757783_s_at) / Fold change /veh VCAN (11757783_s_at) / RFU DDX43 (11728927_at) / Fold change /veh DDX43 (11728927_at) / RFU KRT8 (11758188_x_at) / Fold change /veh KRT8 (11758188_x_at) / RFU NKD1 (11759106_at) / Fold change /veh NKD1 (11759106_at) / RFU SRD5A1 (11742802_a_at) / Fold change /veh SRD5A1 (11742802_a_at) / RFU TPSAB1 /// TPSB2 (11721975_s_at) / Fold change /veh TPSAB1 /// TPSB2 (11721975_s_at) / RFU GSTM3 (11746129_a_at) / Fold change /veh GSTM3 (11746129_a_at) / RFU IL23R (11737362_x_at) / Fold change /veh IL23R (11737362_x_at) / RFU TMEM51 (11727254_a_at) / Fold change /veh TMEM51 (11727254_a_at) / RFU PIWIL2 (11732686_x_at) / Fold change /veh PIWIL2 (11732686_x_at) / RFU ORM1 (11744905_x_at) / Fold change /veh ORM1 (11744905_x_at) / RFU CCDC152 (11743942_at) / Fold change /veh CCDC152 (11743942_at) / RFU ECM1 (11717891_a_at) / Fold change /veh ECM1 (11717891_a_at) / RFU IL23R (11748794_a_at) / Fold change /veh IL23R (11748794_a_at) / RFU TNFAIP8L3 (11732012_x_at) / Fold change /veh TNFAIP8L3 (11732012_x_at) / RFU MBOAT4 (11741988_at) / Fold change /veh MBOAT4 (11741988_at) / RFU 11764193_at / Fold change /veh 11764193_at / RFU TMEM53 (11763286_at) / Fold change /veh TMEM53 (11763286_at) / RFU MAGEB2 (11727129_at) / Fold change /veh MAGEB2 (11727129_at) / RFU TMEM200A (11744735_a_at) / Fold change /veh TMEM200A (11744735_a_at) / RFU CCDC152 (11751479_a_at) / Fold change /veh CCDC152 (11751479_a_at) / RFU FAM211A (11726209_a_at) / Fold change /veh FAM211A (11726209_a_at) / RFU RGS16 (11746705_a_at) / Fold change /veh RGS16 (11746705_a_at) / RFU VCAN (11755009_s_at) / Fold change /veh VCAN (11755009_s_at) / RFU RHOB (11743442_s_at) / Fold change /veh RHOB (11743442_s_at) / RFU RGS16 (11720943_a_at) / Fold change /veh RGS16 (11720943_a_at) / RFU RGS16 (11720944_at) / Fold change /veh RGS16 (11720944_at) / RFU, VPS4B / Fold change vs veh, VPS4B / RFU, CREB1 / Fold change vs veh, CREB1 / RFU, DNAJC13 / Fold change vs veh, DNAJC13 / RFU, GNAQ / Fold change vs veh, GNAQ / RFU, CDK5R1 / Fold change vs veh, CDK5R1 / RFU, ZRANB3 / Fold change vs veh, ZRANB3 / RFU, CUL4A / Fold change vs veh, CUL4A / RFU, CCNY / Fold change vs veh, CCNY / RFU, UFL1 / Fold change vs veh, UFL1 / RFU, COG3 / Fold change vs veh, COG3 / RFU, DIAPH2 / Fold change vs veh, DIAPH2 / RFU, SKA2 / Fold change vs veh, SKA2 / RFU, AFF3 / Fold change vs veh, AFF3 / RFU, LMF1 / Fold change vs veh, LMF1 / RFU, IPO11 / Fold change vs veh, IPO11 / RFU, DFFB / Fold change vs veh, DFFB / RFU, FOXP1 / Fold change vs veh, FOXP1 / RFU, CARD8 / Fold change vs veh, CARD8 / RFU, STRN3 / Fold change vs veh, STRN3 / RFU, ADK / Fold change vs veh, ADK / RFU, RASSF2 / Fold change vs veh, RASSF2 / RFU, WIPF1 / Fold change vs veh, WIPF1 / RFU, LARP1B / Fold change vs veh, LARP1B / RFU, RASA1 / Fold change vs veh, RASA1 / RFU, RB1 / Fold change vs veh, RB1 / RFU, PPFIA1 / Fold change vs veh, PPFIA1 / RFU, MAT2A / Fold change vs veh, MAT2A / RFU, CCT5 / Fold change vs veh, CCT5 / RFU, WDR92 / Fold change vs veh, WDR92 / RFU, CUX1 / Fold change vs veh, CUX1 / RFU, TTC7A / Fold change vs veh, TTC7A / RFU, TMEM135 / Fold change vs veh, TMEM135 / RFU, DEPTOR / Fold change vs veh, DEPTOR / RFU, CPM / Fold change vs veh, CPM / RFU, DNAJB6 / Fold change vs veh, DNAJB6 / RFU, CACNA2D3 / Fold change vs veh, CACNA2D3 / RFU, DTX4 / Fold change vs veh, DTX4 / RFU, TFCP2 / Fold change vs veh, TFCP2 / RFU, GMCL1 /// GMCL1P1 / Fold change vs veh, GMCL1 /// GMCL1P1 / RFU, AEBP2 / Fold change vs veh, AEBP2 / RFU, SNHG1 /// SNORD22 /// SNORD25 /// SNORD26 /// SNORD27 /// SNORD28 /// SNORD29 /// SNORD31 / Fold change vs veh, SNHG1 /// SNORD22 /// SNORD25 /// SNORD26 /// SNORD27 /// SNORD28 /// SNORD29 /// SNORD31 / Fold change (Aza/veh), C12orf56 (ProbeSet 11735607_a_at) / Fold change (ACY-1035/veh), C12orf56 (ProbeSet 11735607_a_at) / Fold change (Aza/veh), FGFR1OP (ProbeSet 11751329_s_at) / Fold change (ACY-1035/veh), FGFR1OP (ProbeSet 11751329_s_at) / Fold change (Aza/veh), VPS36 (ProbeSet 11739960_a_at) / Fold change (ACY-1035/veh), VPS36 (ProbeSet 11739960_a_at) / RFU SYPL1 (11715823_x_at) / Fold change /veh SYPL1 (11715823_x_at) / RFU IGFBP7 (11715501_s_at) / Fold change /veh IGFBP7 (11715501_s_at) / RFU REEP3 (11722064_at) / Fold change /veh REEP3 (11722064_at) / RFU IGLL1 (11728026_x_at) / Fold change /veh IGLL1 (11728026_x_at): dose or concentration left out as unconfirmed
Settings: MV-4-11 cells, 48 hours

Nc1ccc(-c2cccs2)cc1NC(=O)c1ccc2c(c1)cc(C1CC1)n2CCN1CCOCC1 [ACY-1035]
Fold change /veh 11764098_at: 1.17
